Read-outs that look alike come from different tables or passages of the source.
Experiments:
[1] = test system: Escherichia coli (E. coli strain N-4156-W.T); test: Antibacterial potency: E. coli replication, absorbance at 600 nm; assay type: cell-based; conditions: 37° C., L.B. medium, O.D. 600 nm
Method: A suspension of Escherichia coli (E. coli strain N-4156-W.T, 1% V/V in L.B. medium) is divided into plastic tubes (0.5 ml per tube) and incubated in a shaking water bath at 37° C., in either the absence or the presence of increasing concentrations of gentamicin (0.02-50 μM) and increasing concentrations of (Fms)3-gentamicin (0.02-50 μM). E. coli replication is evaluated by measuring the absorbance at 600 nm. Incubation is terminated when O.D600 nm in the tubes containing no gentamicin reaches a value of 0.6±0.1. Under our assay conditions, native gentamicin inhibited half-maximally E. coli replication at a concentration of 0.22±0.02 μM (0.1 μg/ml).

[2] = test system: acetylcholine-induced abdominal constriction; test: Acetylcholine-induced abdominal constriction in mice (antinociceptive activity); assay type: in vivo; conditions: for inhibition of acetylcholine-induced abdominal constriction, dose response (FIG. 3): 30 minutes after SC, Fmoc-Met-enkephalin 50 and 25 mg/kg, p<0.05; for inhibition of acetylcholine-induced abdominal constriction, dose response (FIG. 3) / activity after SC or PO administration: Met-enkephalin 50 mg/kg; for antinociceptive activity in the mouse: comparable doses; for antinociceptive activity in the mouse / activity after SC or PO administration: SC or PO; for activity after SC or PO administration: Fmoc-Ala 25 mg/kg
Excerpt: The method used in the experiments herein for evaluating the antinociceptive properties of Fmoc-Met-enkephalin is a standard method for evaluating compounds having analgesic activity such as non-steroidal anti-inflammatory agents, opioids, and other analgesics, and consists in administering acetylcholine I.P. to mice, treating the mice with the test compound and evaluating the inhibition of abdominal constriction induced by the acetylcholine.
Thus, 120 healthy CD-1, Swiss derived, albino male mice (obtained from Charles River Breeding Labs, Wilmington, Mass.) were weighed, examined for health and equally distributed into one of the 12 test groups shown in Table 1.
SC administration was carried out with a standard syrine and needle and given in a volume of 10 ml per kg. Oral administration was performed using a standard curved oval gavage needle and given in a volume of 10 ml per kg. Thirty minutes after administration of the appropriate treatment, acetylcholine (5.5 mg/kg) was injected I.P. The mice were then placed in large plastic boxes and observed for the occurrence of a single abdominal constriction (defined as a wave of construction and elongation passing caudally along the abdominal wall, accompanied by a twisting of the trunk and followed by extension of the hind limbs). […] Acetylcholine-induced abdominal constriction was repeated again at approximately 120 minutes after test compound administration.
Observations included gross evaluation of the skin and fur, eyes and mucous membranes, respiratory, circulatory, autonomic and central nervous system, somatomotor activity and behavioral patterns. Particular attention was directed to observation of tremors, convulsions, salivation, diarrhea, sleep and coma. A non-parametric analysis of quantal data (Fisher exact test) was used to determine statistical significance of results.

[3] = rats; Dox 10 μg/g, Fms-Dox 15 μg/g I.P.
Method: (§1) The experiment was carried out with a single mice or rat per compound (per metabolic cage) and it was repeated 7 times with rats and twice with mice using the protocol below. The fluorescent feature of doxorubicin enables the observation of its presence in the urine following different modes of administration.
Urine was collected several times after administration and the fluorescence emission was measured by a fluorometer. The urine collected from the untreated groups was used as a blank.
Urine was collected at 1.25, 2.5, 4 and 6 hours after administration and fluorescence intensity was measured in a fluorometer (SPECTRAmax and GEMINI of Molecular Devices Sunnyvale Fluorometer, CA, USA). Since doxorubicin is a fluorescent material, when it absorbs light energy at a wavelength of 488 nm (excitation), it undergoes an electronic state change and instantaneously emits light at 595 nm (emission). The Relative Fluorescence Units (RFU) shown in FIG. 1 indicate the peaks of light emitted at 595 nm resulting from the absorption of Dox at 488 nm.

[4] = Method: as §1
The experiments were repeated with mice.

[5] = test system: F10.9 melanoma cell line; test: Inhibition of proliferation of cancer cells in vitro, crystal violet staining; assay type: cell-based; conditions: F10.9 melanoma cells, 96 hours, crystal violet staining (FIG. 2); read-out: IC50 (the concentration at which cell growth is inhibited by 50%)
Method: (§2) The efficacy of native Dox and FMS-Dox on the inhibition of proliferation of cancer cells was tested in vitro with F10.9 melanoma cell line. On day (−1) cells, were seeded in a 24-well plate (5×10^3 cells/ml/well). On day (0), cells were incubated with Dox and FMS-Dox at logarithmic dilutions from 100 μM to 0.001 μM. Survival of cells at 96 hours was determined, using the crystal violet staining method. Optical density (OD) was measured at 620 nm in an ELISA reader. The OD reading was correlated to % viable cells. When the cells were untreated the absorbance was at a maximum. IC50 (the concentration at which cell growth is inhibited by 50%) was determined. The results in FIG. 2 show IC50 values of 0.03 μM and 0.09 μM for native Dox and FMS-Dox, respectively. […] The was confirmed by HPLC analysis whereby the compound found in the growing cell medium after 96 hr corresponded to native doxorubicin.

[6] = test system: luteinizing hormone (LH) in circulating blood; test: Effect of GnRH analogs on LH levels in blood of rats (RIA); assay type: in vivo, rat; set-up: LH 180 min: unit not given here
Method: The experiment was carried out with 55 female Wistar 8-week old rates, equally distributed into one of the eleven test groups as detailed in the following Table 3:
The compounds were administered either orally (PO) or intraperitoneally (IP) in a molar concentration of 0.4 nmol/rat (equivalent to 0.5 μg/rat of D-Lys^6-GnRH and to 0.6 μg/rat of Fms- or Fmoc-D-Lys^6-GnRH), or of 40 nmol/rat (equivalent in 50 μg/rat of D-Lys^6-GnRH and to 60 μg/rat of Fms- or Fmoc-D-Lys^6-GnRH), in 0.5 ml PBS. Ninety and 180 minutes after administration of the appropriate treatment, blood samples were collected (1 ml), the serum was separated, and the detection of LH levels was carried out by radioimmunoassay (RIA) as previously described (Rahimipour, S., et Al. J. Med. Chem. 2001, 44, 3645-3652).

[7] = HPLC analysis of growing cell medium (cleavage of Fms-Dox); assay type: in vitro ADME; conditions: growing cell medium after 96 hr
Method: as §2

[8] = test system: Candida albicans; conditions: 20 IU; Agar-RPMI plates confluent with Candida albicans, 48 hr at 30° C.; cited from earlier work
[9] = 0.4 nmol/rat (0.5 or 0.6 μg/rat) IP
[10] = 0.4 nmol/rat (0.5 or 0.6 μg/rat) PO
[11] = 40 nmol/rat (50 or 60 μg/rat) PO

## gentamicin [native gentamicin]
[1]
  concentration inhibiting half-maximally E. coli replication: 0.1 µg/mL
[1]; read-out: concentration inhibiting half-maximally E. coli replication
  IC50: 220 ± 20 nM

## (X1)Tyr-Gly-Gly-Phe-Met [Fmoc-Met-Enk]
[2]; 6.25 mg/kg SC, 30 minutes
  # mice abdominal construction: 9/10
  % inhibition: 10%
[2]; 6.25 mg/kg SC, 120 minutes
  # mice abdominal construction: 8/10
  % inhibition: 20%
[2]; 12.5 mg/kg PO, 30 minutes
  # mice abdominal construction: 6/10
  % inhibition: 40%
[2]; 12.5 mg/kg PO, 120 minutes
  # mice abdominal construction: 10/10
[2]; 12.5 mg/kg SC, 30 minutes
  # mice abdominal construction: 7/10
  % inhibition: 30%
[2]; 12.5 mg/kg SC, 120 minutes
  # mice abdominal construction: 8/10
  % inhibition: 20%
[2]; 25 mg/kg PO, 30 minutes
  # mice abdominal construction: 6/10
  % inhibition: 40%
[2]; 25 mg/kg PO, 120 minutes
  # mice abdominal construction: 10/10
[2]; 25 mg/kg SC, 30 minutes
  # mice abdominal construction: 6/10
  % inhibition: 40%
[2]; 25 mg/kg SC, 120 minutes
  # mice abdominal construction: 6/10
  % inhibition: 40%
  activity at 120 minutes after drug administration: active
[2]; 50 mg/kg PO, 30 minutes
  # mice abdominal construction: 8/10
  % inhibition: 20%
[2]; 50 mg/kg PO, 120 minutes
  # mice abdominal construction: 6/10
  % inhibition: 40%
[2]; 50 mg/kg SC, 30 minutes
  # mice abdominal construction: 5/10
  % inhibition: 50%
[2]; 50 mg/kg SC, 120 minutes
  # mice abdominal construction: 9/10
  % inhibition: 10%
[2]; 50 and 25 mg/kg SC and 25 and 12.5 mg/kg PO, 30 minutes
  inhibition of acetylcholine-induced abdominal constriction (statistical significance): statistically significant inhibition
[2]
  inhibition of acetylcholine-induced abdominal constriction, dose response (FIG. 3): statistically significant
  antinociceptive activity in the mouse: significant antinociceptive activity
[2]; mice, during the experimental period
  signs of CNS depression or sedation: did not show signs of CNS depression or sedation
[2]; oral administration, any dose, 120 minutes
  statistically significant activity compared to Fmoc-Ala: did not show statistically significant activity
[2]; orally, 25 and 12.5 mg/kg after 30 minutes and 50 mg/kg after 120 minutes
  inhibition of acetylcholine-induced abdominal constriction after oral administration (FIG. 4): statistically significant inhibition

## COc1cccc2c1C(=O)c1c(O)c3c(c(O)c1C2=O)C[C@@](O)(C(=O)CO)C[C@@H]3O[C@H]1C[C@H](N)[C@H](O)[C@H](C)O1 [native Dox, Doxorubicin]
[3]
  absorption following I.P. administration (urine fluorescence): absorbed
[4]; mice, I.P.
  absorption following I.P. administration (urine fluorescence): absorbed
[4]; mouse, in vivo, po
  oral absorption (urine fluorescence): orally nonabsorbed
[5]
  IC50: 30 nM

## 5-oxo-Pro-His-Trp-Ser-Tyr-(Fmoc)D-Lys-Leu-Arg-Pro-Gly-NH2 [Fmoc-D-Lys^6-GnRH]
[6]; [9]
  LH 90 min: 50 ng/mL
  LH 180 min: 17
[6]; [10]
  LH 90 min: 0 ng/mL
  LH 180 min: 0
[6]; [11]
  LH 90 min: 0 ng/mL
  LH 180 min: 0
[6]
  activity when administered IP: active

## 5-oxo-Pro-His-Trp-Ser-Tyr-(Fms)D-Lys-Leu-Arg-Pro-Gly-NH2 [Fms-D-Lys^6-GnRH]
[6]; [9]
  LH 90 min: 80 ng/mL
  LH 180 min: 25
[6]; [10]
  LH 90 min: 0.4 ng/mL
  LH 180 min: 0
[6]; [11]
  LH 90 min: 80 ng/mL
  LH 180 min: 35
[6]
  activity when administered IP: active
[6]; oral, 90 and 180 min after administration
  effect of oral administration on LH levels in the blood circulation: elevation of the LH levels

## Tyr-Gly-Gly-Phe-Met [Met-Enk, reference compound]
[2]; 50 mg/kg PO, 30 minutes
  # mice abdominal construction: 9/10
  % inhibition: 10%
[2]; 50 mg/kg PO, 120 minutes
  # mice abdominal construction: 9/10
  % inhibition: 10%
[2]; 50 mg/kg SC, 30 minutes
  # mice abdominal construction: 8/10
  % inhibition: 20%
[2]; 50 mg/kg SC, 120 minutes
  # mice abdominal construction: 10/10
[2]
  inhibition of acetylcholine-induced abdominal constriction, dose response (FIG. 3): not significantly active
  activity after SC or PO administration: not active
  antinociceptive activity in the mouse: neither Met-enkephalin nor Fmoc-Ala is active

## Fms-doxorubicin
[5]
  IC50: 90 nM
[7]
  cleavage in the cell medium (HPLC analysis): full recovery of the native doxorubicin

## C[C@H](NC(=O)OCC1c2ccccc2-c2ccccc21)C(=O)O [Fmoc-Ala, reference compound]
[2]; 25 mg/kg PO, 30 minutes
  # mice abdominal construction: 10/10
[2]; 25 mg/kg PO, 120 minutes
  # mice abdominal construction: 8/10
  % inhibition: 20%
[2]; 25 mg/kg SC, 30 minutes
  # mice abdominal construction: 10/10
[2]; 25 mg/kg SC, 120 minutes
  # mice abdominal construction: 10/10
[2]
  activity after SC or PO administration: not active
  antinociceptive activity in the mouse: neither Met-enkephalin nor Fmoc-Ala is active

## C[C@@H]1[C@H](O)[C@@H](C)/C=C/C=C/C=C/C=C/C=C/C=C/C=C/[C@H](O[C@@H]2O[C@H](C)[C@@H](O)[C@H](N)[C@@H]2O)C[C@@H]2O[C@](O)(C[C@@H](O)C[C@@H](O)[C@H](O)CC[C@@H](O)C[C@@H](O)CC(=O)O[C@H]1C)C[C@H](O)[C@H]2C(=O)O [native Amphotericin B, Amphotericin B]
[8]
  clear zone diameter: 1.5 cm
